In US6559101B2, “N- (5, 7-dimethoxy [1, 2, 4] triazolo [1, 5-a] pyrimidin-2-yl) arylsulfonamide compounds and their use as herbicides” (Dow AgroSciences LLC, priority 2000, dated 2003):

Assays:
Assay type in all cases: in vivo
[1] = system: cocklebur (Xanthium strumarium); experiment: Postemergence herbicidal activity; details: scored after 2 weeks, 0 no injury, 100 complete kill
Protocol: (§1) Seeds of the desired test plant species were planted in Grace-Sierra MetroMix® 306 planting mixture, which typically has a pH of 6.0 to 6.8 and an organic matter content of about 30 percent, in plastic pots with a surface area of 64 square centimeters. When required to ensure good germination and healthy plants, a fungicide treatment and/or other chemical or physical treatment was applied. The plants were grown for 7-21 days in a greenhouse with an approximately 15 hr photoperiod which was maintained at about 23-29° C. during the day and 22-28° C. during the night. Nutrients and water were added on a regular basis and supplemental lighting was provided with overhead metal halide 1000 Watt lamps as necessary. The plants were employed for testing when they reached the first or second true leaf stage. A weighed amount of each test compound, determined by the highest rate to be tested, was placed in a 20 mL glass vial and was dissolved in 4 mL of a 97:3 v/v (volume/volume) mixture of acetone and dimethyl sulfoxide to obtain concentrated stock solutions. […] The concentrated stock solutions obtained were diluted with an aqueous mixture containing acetone, water, iso-propyl alcohol, dimethyl sulfoxide, Atplus 411F crop oil concentrate, and Triton X-155 surfactant (methylenebisdiamyl phenoxy polyethoxy ethanol) in a 48.5:39:10:1.5:1.0:0.02 v/v ratio to obtain spray solutions of known concentration. The solutions containing the highest concentration to be tested were prepared by diluting 2 mL aliquots of the stock solution with 13 mL of the mixture and lower concentrations were prepared by dilution of appropriate smaller portions of the stock solution. Approximately 1.5 mL aliquots of each solution of known concentration were sprayed evenly onto each of the test plant pots using a Devilbiss atomizer driven by compressed air pressure of 2 to 4 psi (140 to 280 kiloPascals) to obtain thorough coverage of each plant. Control plants were sprayed in the same manner with the aqueous mixture. In this test an application rate of 1 ppm results in the application of approximately 1 g/ha. The treated plants and control plants were placed in a greenhouse as described above and watered by sub-irrigation to prevent wash-off of the test compounds. After 2 weeks the condition of the test plants as compared with that of the untreated plants was determined visually and scored on a scale of 0 to 100 percent where 0 corresponds to no injury and 100 corresponds to complete kill.

viola (Viola tricolor) = experiment: Postemergence herbicidal activity; details: scored after 2 weeks, 0 no injury, 100 complete kill
Protocol: as §1

[2] = system: giant foxtail (Setaria faberi); experiment: Postemergence herbicidal activity; details: scored after 2 weeks, 0 no injury, 100 complete kill
Protocol: as §1

[3] = system: Rox orange sorghum (Sorghum bicolor); experiment: Postemergence herbicidal activity; details: scored after 2 weeks, 0 no injury, 100 complete kill
Protocol: as §1

[4] = system: velvetleaf (Abutilion theophrasti); experiment: Postemergence herbicidal activity; details: scored after 2 weeks, 0 no injury, 100 complete kill
Protocol: as §1

wild oats (Avena fatua) [5] = experiment: Postemergence herbicidal activity; details: scored after 2 weeks, 0 no injury, 100 complete kill
Protocol: as §1

[6] = system: wild buckwheat (Polygonum convolvulus); experiment: Postemergence herbicidal activity; details: scored after 2 weeks, 0 no injury, 100 complete kill
Protocol: as §1

[7] = system: chickweed (Stellaria media); experiment: Postemergence herbicidal activity; details: scored after 2 weeks, 0 no injury, 100 complete kill
Protocol: as §1

[8] = system: morningglory (Ipomoea hederacea); experiment: Postemergence herbicidal activity; details: 62.5 ppm; scored after 2 weeks; 0 no injury, 100 complete kill
Protocol: as §1

[9] = system: blackgrass (Alopecurus myosuroides); experiment: Postemergence herbicidal activity; details: scored after 2 weeks, 0 no injury, 100 complete kill
Protocol: as §1

[10] = system: pigweed (Amaranthus retroflexus); experiment: Postemergence herbicidal activity; details: scored after 2 weeks, 0 no injury, 100 complete kill
Protocol: as §1

[11] = system: barnyardgrass (Echinochloa crus-galli); experiment: Preemergence herbicidal activity; details: scored after 3 weeks, 0 no injury, 100 complete kill or no germination
Protocol: (§2) The soil matrix was contained in plastic pots with a surface area of 161 square centimeters. When required to ensure good germination and healthy plants, a fungicide treatment and/or other chemical or physical treatment was applied. A weighed amount, determined by the highest rate to be tested, of each test compound was placed in a 20 mL glass vial and was dissolved in 8 mL of a 97:3 v/v (volume/volume) mixture of acetone and dimethyl sulfoxide to obtain concentrated stock solutions. […] The stock solutions obtained were diluted with a 99.9:0.1 mixture of water and Tween® 155 surfactant (ethoxylated sorbitan fatty acid ester) to obtain application solutions of known concentration. The solutions containing the highest concentration to be tested were prepared by diluting 4 mL aliquots of the stock solution with 8.5 mL of the mixture and lower concentrations were prepared by dilution of appropriate smaller portions of the stock solution. A 2.5 mL aliquot of each solution of known concentration was sprayed evenly onto the soil of each seeded pot using a Cornwall 5.0 mL glass syringe fitted with a TeeJet TN-3 hollow cone nozzle to obtain thorough coverage of the soil in each pot. Control pots were sprayed in the same manner with the aqueous mixture. A highest application rate of 4.48 kg/ha is achieved when 50 mg of test compound is employed. The treated pots and control pots were placed in a greenhouse with an approximately 15 hr photoperiod which was maintained at about 23-29° C. during the day and 22-28° C. during the night. Nutrients and water were added on a regular basis and supplemental lighting was provided with overhead metal halide 1000 Watt lamps as necessary. The water was added by top-irrigation. After 3 weeks the condition of the test plants that germinated and grew as compared with that of the untreated plants that germinated and grew was determined visually and scored on a scale of 0 to 100 percent where 0 corresponds to no injury and 100 corresponds to complete kill or no germination.

[12] = system: cocklebur (Xanthium strumarium); experiment: Preemergence herbicidal activity; details: scored after 3 weeks, 0 no injury, 100 complete kill or no germination
Protocol: as §2

[13] = system: giant foxtail (Setaria faberi); experiment: Preemergence herbicidal activity; details: scored after 3 weeks, 0 no injury, 100 complete kill or no germination
Protocol: as §2

[14] = system: wild poinsettia (Euphorbia heterophylla); experiment: Preemergence herbicidal activity; details: scored after 3 weeks, 0 no injury, 100 complete kill or no germination
Protocol: as §2

[15] = system: Rox orange sorghum (Sorghum bicolor); experiment: Preemergence herbicidal activity; details: scored after 3 weeks, 0 no injury, 100 complete kill or no germination
Protocol: as §2

[16] = system: velvetleaf (Abutilion theophrasti); experiment: Preemergence herbicidal activity; details: scored after 3 weeks, 0 no injury, 100 complete kill or no germination
Protocol: as §2

wild oats (Avena fatua) [17] = experiment: Preemergence herbicidal activity; details: scored after 3 weeks, 0 no injury, 100 complete kill or no germination
Protocol: as §2

[18] = system: morningglory (Ipomoea hederacea); experiment: Preemergence herbicidal activity; details: scored after 3 weeks, 0 no injury, 100 complete kill or no germination
Protocol: as §2

[19] = system: blackgrass (Alopecurus myosuroides); experiment: Preemergence herbicidal activity; details: scored after 3 weeks, 0 no injury, 100 complete kill or no germination
Protocol: as §2

[20] = system: pigweed (Amaranthus retroflexus); experiment: Preemergence herbicidal activity; details: scored after 3 weeks, 0 no injury, 100 complete kill or no germination
Protocol: as §2

[21] = system: crabgrass (Digitaria sanguinalis); experiment: Preemergence herbicidal activity; details: scored after 3 weeks, 0 no injury, 100 complete kill or no germination
Protocol: as §2

[22] = system: lambsquarters (Chenopodium album); experiment: Postemergence herbicidal activity; details: scored after 2 weeks, 0 no injury, 100 complete kill
Protocol: as §1

In the case of `COC(=O)c1cccc(OC)c1S(=O)(=O)Nc1nc2nc(OC)cc(OC)n2n1` [Compound 7], the “Postemergence herbicidal activity XANST” value ([1]; 62.5 ppm) is reported as 40%, the “Postemergence herbicidal activity VIOTR” value (viola (Viola tricolor); 62.5 ppm) is reported as 80% and the “Postemergence herbicidal activity SETFA” value ([2]; 62.5 ppm) is reported as 95%. For the same compound, the “Postemergence herbicidal activity SORBI” value ([3]; 62.5 ppm) was 80%, the “Postemergence herbicidal activity ABUTH” value ([4]; 62.5 ppm) was 70% and the “Postemergence herbicidal activity AVEFA” value (wild oats (Avena fatua) [5]; 62.5 ppm) was 90%. The “Postemergence herbicidal activity POLCO” value ([6]; 62.5 ppm) was 85%, the “Postemergence herbicidal activity STEME” value ([7]; 62.5 ppm) was 90% and the “Postemergence herbicidal activity IPOHE” value [8] was 80%. The “Postemergence herbicidal activity ALOMY” value ([9]; 62.5 ppm) was 95%, the “Postemergence herbicidal activity AMARE” value ([10]; 62.5 ppm) was 95% and the “Preemergence herbicidal activity ECHCG” value ([11]; 70 g/Ha) was 20%. For the same compound, the “Preemergence herbicidal activity XANST” value ([12]; 70 g/Ha) was 0%, the “Preemergence herbicidal activity SETFA” value ([13]; 70 g/Ha) was 100% and the “Preemergence herbicidal activity EPHHL” value ([14]; 70 g/Ha) was 20%. The “Preemergence herbicidal activity SORBI” value ([15]; 70 g/Ha) was 95%, the “Preemergence herbicidal activity ABUTH” value ([16]; 70 g/Ha) was 0% and the “Preemergence herbicidal activity AVEFA” value (wild oats (Avena fatua) [17]; 70 g/Ha) was 70%. The “Preemergence herbicidal activity IPOHE” value ([18]; 70 g/Ha) was 10%, the “Preemergence herbicidal activity ALOMY” value ([19]; 70 g/Ha) was 100% and the “Preemergence herbicidal activity AMARE” value ([20]; 70 g/Ha) was 100%. The “Preemergence herbicidal activity DIGSA” value ([21]; 70 g/Ha) was 40%.

With `COc1cc(OC)n2nc(NS(=O)(=O)c3c(OCCF)cccc3C(F)(F)F)nc2n1` [Compound 3, N-(5,7-dimethoxy[1,2,4]triazolo[1,5-a]pyrimidin-2-yl)-2-(2-fluoroethoxy)-6-(trifluoromethyl)benzenesulfonamide] the “Postemergence herbicidal activity XANST” value ([1]; 3.9 ppm) was 75%, the “Postemergence herbicidal activity VIOTR” value (viola (Viola tricolor); 3.9 ppm) was 90% and the “Postemergence herbicidal activity SETFA” value ([2]; 3.9 ppm) was 98%. The “Postemergence herbicidal activity SORBI” value ([3]; 3.9 ppm) was 70%, the “Postemergence herbicidal activity ABUTH” value ([4]; 3.9 ppm) was 80% and the “Postemergence herbicidal activity AVEFA” value (wild oats (Avena fatua) [5]; 3.9 ppm) was 70%. For the same compound, the “Postemergence herbicidal activity POLCO” value ([6]; 3.9 ppm) was 98%, the “Postemergence herbicidal activity STEME” value ([7]; 3.9 ppm) was 95% and the “Postemergence herbicidal activity CHEAL” value ([22]; 3.9 ppm) was 95%. The “Postemergence herbicidal activity ALOMY” value ([9]; 3.9 ppm) was 95%, the “Postemergence herbicidal activity AMARE” value ([10]; 3.9 ppm) was 98% and the “Preemergence herbicidal activity ECHCG” value ([11]; 17.5 g/Ha) was 100%. The “Preemergence herbicidal activity XANST” value ([12]; 17.5 g/Ha) was 100%, the “Preemergence herbicidal activity SETFA” value ([13]; 17.5 g/Ha) was 100% and the “Preemergence herbicidal activity EPHHL” value ([14]; 17.5 g/Ha) was 90%. The “Preemergence herbicidal activity SORBI” value ([15]; 17.5 g/Ha) was 100%, the “Preemergence herbicidal activity ABUTH” value ([16]; 17.5 g/Ha) was 100% and the “Preemergence herbicidal activity AVEFA” value (wild oats (Avena fatua) [17]; 17.5 g/Ha) was 95%. The “Preemergence herbicidal activity IPOHE” value ([18]; 17.5 g/Ha) was 98%, the “Preemergence herbicidal activity ALOMY” value ([19]; 17.5 g/Ha) was 100% and the “Preemergence herbicidal activity AMARE” value ([20]; 17.5 g/Ha) was 100%. The “Preemergence herbicidal activity DIGSA” value ([21]; 17.5 g/Ha) was 100%.

For `COc1cc(OC)n2nc(NS(=O)(=O)c3c(OC)cccc3OC)nc2n1` [Compound 2], the “Postemergence herbicidal activity XANST” value ([1]; 15.6 ppm) was 70%, the “Postemergence herbicidal activity VIOTR” value (viola (Viola tricolor); 15.6 ppm) was 90% and the “Postemergence herbicidal activity SETFA” value ([2]; 15.6 ppm) was 98%. For the same compound, the “Postemergence herbicidal activity SORBI” value ([3]; 15.6 ppm) was 100%, the “Postemergence herbicidal activity ABUTH” value ([4]; 15.6 ppm) was 95% and the “Postemergence herbicidal activity AVEFA” value (wild oats (Avena fatua) [5]; 15.6 ppm) was 98%. The “Postemergence herbicidal activity POLCO” value ([6]; 15.6 ppm) was 98%, the “Postemergence herbicidal activity STEME” value ([7]; 15.6 ppm) was 98% and the “Postemergence herbicidal activity CHEAL” value ([22]; 15.6 ppm) was 90%. For the same compound, the “Postemergence herbicidal activity ALOMY” value ([9]; 15.6 ppm) was 98%, the “Postemergence herbicidal activity AMARE” value ([10]; 15.6 ppm) was 95% and the “Preemergence herbicidal activity ECHCG” value ([11]; 17.5 g/Ha) was 60%. The “Preemergence herbicidal activity XANST” value ([12]; 17.5 g/Ha) was 80%, the “Preemergence herbicidal activity SETFA” value ([13]; 17.5 g/Ha) was 100% and the “Preemergence herbicidal activity EPHHL” value ([14]; 17.5 g/Ha) was 85%. For the same compound, the “Preemergence herbicidal activity SORBI” value ([15]; 17.5 g/Ha) was 95%, the “Preemergence herbicidal activity ABUTH” value ([16]; 17.5 g/Ha) was 75% and the “Preemergence herbicidal activity AVEFA” value (wild oats (Avena fatua) [17]; 17.5 g/Ha) was 75%. The “Preemergence herbicidal activity IPOHE” value ([18]; 17.5 g/Ha) was 85%, the “Preemergence herbicidal activity ALOMY” value ([19]; 17.5 g/Ha) was 100% and the “Preemergence herbicidal activity AMARE” value ([20]; 17.5 g/Ha) was 100%. For the same compound, the “Preemergence herbicidal activity DIGSA” value ([21]; 17.5 g/Ha) was 80%.
